Measured values taken from patent US20150148405A1, “Expression Construct for a Lin28-Resistant Let-7 Precursor MicroRNA” (THE JOHNS HOPKINS UNIVERSITY, priority 2012, published 2015).
Numbered stars: 1 amine (or outer) side, 2 acyl side, 3 side chain; on linkers, the order of the positions; unused ones are H or OH. Bridge positions count the residues as written; N and C are the ends. Square brackets hold non-standard residues; d marks the D form. Peptide text beside a SMILES is read from it. I, II: the chains in the order shown. Actinocin(9to1) = Cc1c2oc3c(C)ccc(C(=O)[*:1])c3nc-2c(C(=O)[*:2])c(N)c1=O; NMeV = CN[C@H](C(=O)O)C(C)C; Sar = CNCC(=O)O

Key:
Format in all cases: cell-based, mouse
[1] = tested on: BDNF targets; test: Immunoblotting for BDNF target proteins with or without Actinomycin-D; conditions: Actinomycin-D 0.5 μg/mL added 10 min before stimulation
Procedure: […] Bath application of BDNF (100 ng/mL) was for designated periods (5 min-2 hours). The cultures were washed 3 times and harvested on ice with lysis buffer (50 mM Hepes, 150 mM NaCl, 10% Glycerol, 1 mM EDTA, 1% Triton-X-100, 0.2% SDS) plus freshly added protease inhibitor cocktail (Roche) and PMSF. Protein concentration was determined by Bradford Assay. If required, lysates were treated with Lambda Protein Phosphatase according to manufacturer's instructions (New England Biolabs P0753S). Equal amounts of lysate protein were resolved on SDS-PAGE gels, and electrotransferred to PVDF membrane. Membrane was blocked with 5% milk in Tris-buffered saline tween 20 (TBST) and probed with primary antibodies in 5% milk or BSA in TBST: GluR1 (Millipore AB1504), CaMKIIα (Zymed 13-7300), Homer2 (gift of P. Worley), KCC2 (Upstate 07-432), Kv1.1 (NeuroMab 73-007), β-tubulin (U. Iowa DSHB, clone E-7), GAPDH (gift of S. Snyder), GW182 (18033 gift of M. Fritzler or Abcam ab84403), Dcp1a (gift of J. Lykke-Andersen or NeuroMab clone3G4), phospho-ERK ½ (Sigma M 7802), Dicer (NeuroMab clone N167/7), TRBP (Abeam ab72110), Lin28a (Cell Signaling A177), Lin28b (gift of E. Moss or Cell Signaling 5422), Arc (SantaCruz 17839), mCherry (Clontech 632496), GFP (NeuroMab N86/8).

[2] = tested on: cultured neurons; test: 35S-labelling total protein synthesis; conditions: mock or BDNF 100 ng/mL 2 hours, Actinomycin-D
Procedure: Cultured neurons were pre-incubated in media containing reduced-serum and Actinomycin-D as previously described, followed by washing and incubation for 10 min with methionine- and cysteine-free DMEM (Mediatech, Inc.), and ^35S labeling in the same DMEM with the addition of ^355-methionine/cysteine (^35S Met/Cys EasyTag Mix, Perkin Elmer) to a final concentration of […]. Mock- or BDNF stimulation was for 2 hours. Cells were washed and lysed with lysis buffer (see immunoblotting). Lysates were centrifuged and collected supernatants subjected to Bradford assay. To assess newly synthesized proteins, 200-500 μg of lysates proteins were precipitated with 10% trichloroacetic acid (TCA) for 1 hour on ice in the presence of 0.5% deoxycholate (DOC) to remove interfering phenol red. After centrifugation, protein pellets were washed with ice-cold 95% ethanol, solubilized in denaturing buffer ([…] Tris pH 8.3, 5 mM EDTA, 0.05% SDS, 6M urea), and subjected to liquid scintillation counting (Econofluor, New England Nuclear, Inc.). ^35S Disintegration per minute (DPM) was used to quantitate protein synthesis after subtraction of background readings.

[3] = tested on: hippocampal pyramidal neurons; test: Live cell imaging of P-body numbers (GFP-Dcp1a); conditions: 15 μM
Procedure: Dissociated hippocampal cultures were prepared from postnatal day 0 (P0) mice as previously described (Meffert et al., 2003). Knockdown was by lentiviral-mediated delivery of shRNA to cultures at multiplicity of infection of 5-10, 48 hr before imaging or 4-5 days for GW182. Cultures were preincubated 10-20 min and mock- or BDNF-stimulated (100 ng/mL BDNF) in the presence of Actinomycin-D (0.5 μg/mL), unless indicated otherwise.
Confocal images of hippocampal pyramidal neurons were acquired on either a Yokogawa spinning disk (Zeiss) at 37° C. (live cells), or a LSM5 Pascal system (fixed cells). Laser power and exposure time were adjusted to minimize photobleaching and avoid saturation. […]
Dissociated hippocampal cultures were prepared from postnatal day 0 (P0) mice as previously described (Meffert et al., 2003) and were maintained in Neurobasal A medium (Gibco, 10888) with B27 Supplement (Gibco 17504-44). […] For live cell imaging, confocal images of hippocampal pyramidal neurons (excitatory, determined by morphology) in 0.24-0.3 μm Z sections were acquired using a 40×, 1.3 NA, EC Plan Neofluoar (whole cells) or a 100×, 1.4 NA Plan Apochromat oil immersion objective (dendrites) on a Yokogawa spinning disk system (Cell Observer, Carl Zeiss) at 37° C. in Tyrodes buffer (in mM: 119 NaCl, 5 KCl, 2 CaCl2, 0.2 MgCl2, Glucose, 25 Hepes, 0.01 Glycine, pH 7.4). […]

| Compound | BDNF-induced protein synthesis of BDNF targets [1] | total protein synthesis (35S incorporation) [2] | P-body numbers in neuronal soma and dendrites [3] |
| --- | --- | --- | --- |
| Cc1c2oc3c(C)ccc(C(=O)N[C@@H]4C(=O)N[C@H](C(C)C)C(=O)N5CCC[C@H]5C(=O)N(C)CC(=O)N(C)[C@@H](C(C)C)C(=O)O[C@@H]4C)c3nc-2c(C(=O)N[C@@H]2C(=O)N[C@H](C(C)C)C(=O)N3CCC[C@H]3C(=O)N(C)CC(=O)N(C)[C@@H](C(C)C)C(=O)O[C@@H]2C)c(N)c1=O [Actinomycin-D] (I: T[dV]P[Sar][NMeV] / II: T[dV]P[Sar][NMeV]; ester I:1-I:C, II:1-II:C; linker I:N-II:N via Actinocin(9to1)) | does not alter BDNF-induced protein synthesis |  |  |
| CCn1cc(C(=O)O)c(=O)c2cc(F)c(N3CCNCC3)nc21 [Enoxacin, enoxacin] |  | did not alter basal or BDNF-induced total protein synthesis | rapidly and robustly increased P-body numbers |
| CCn1cc(C(=O)O)c(=O)c2cc3c(cc21)OCO3 [oxolinic acid] |  | does not alter total cellular protein synthesis |  |
